One assay has as its system A549. In words: cells. In kind it is functional, cell-based. The note with it: Homo sapiens.
A further assay concerns HL-60. In words: cells. The note with it: Homo sapiens.
A further assay relates to PC-3. In words: cells. It counts as functional, cell-based. The note with it: Homo sapiens.
The test system of a further assay is K562. In words: cells. The settings on record: Homo sapiens.
The subject of the next assay is MOLT-4. In words: cells. In kind it is functional, cell-based. The note with it: Homo sapiens.
A further assay relates to HH. In words: cells. The settings on record: Homo sapiens. It counts as functional, cell-based.
A further assay concerns MDA-MB-231. In words: Antiproliferative activity against human MDA-MB-231 cells assessed as inhibition of cell growth by MTT assay. It counts as functional, cell-based.
A further assay deals with SiHa. In words: cells. The settings on record: Homo sapiens. It counts as functional, cell-based.
The test system of the next assay is FaDu. In words: cells. In kind it is functional, cell-based. The settings on record: Homo sapiens.
The next assay has as its target Histone deacetylase 1 (Homo sapiens, UniProt Q13547). In words: Inhibition of HDAC1 (unknown origin) using p53 residues 379 to 382 [RHKK(Ac)] as fluorogenic substrate.
A further assay concerns the target Histone deacetylase 3 (Homo sapiens, UniProt O15379). In words: Inhibition of HDAC3 (unknown origin) using p53 residues 379 to 382 [RHKK(Ac)] as fluorogenic substrate.
Another assay has as its target Histone deacetylase 2 (Homo sapiens, UniProt Q92769). In words: Inhibition of HDAC2 (unknown origin).

The structures appear in SMILES notation. Bounds are passed on as bounds.

Chain of Histone deacetylase 1 (Q13547 whole entry, the tested form may be a part): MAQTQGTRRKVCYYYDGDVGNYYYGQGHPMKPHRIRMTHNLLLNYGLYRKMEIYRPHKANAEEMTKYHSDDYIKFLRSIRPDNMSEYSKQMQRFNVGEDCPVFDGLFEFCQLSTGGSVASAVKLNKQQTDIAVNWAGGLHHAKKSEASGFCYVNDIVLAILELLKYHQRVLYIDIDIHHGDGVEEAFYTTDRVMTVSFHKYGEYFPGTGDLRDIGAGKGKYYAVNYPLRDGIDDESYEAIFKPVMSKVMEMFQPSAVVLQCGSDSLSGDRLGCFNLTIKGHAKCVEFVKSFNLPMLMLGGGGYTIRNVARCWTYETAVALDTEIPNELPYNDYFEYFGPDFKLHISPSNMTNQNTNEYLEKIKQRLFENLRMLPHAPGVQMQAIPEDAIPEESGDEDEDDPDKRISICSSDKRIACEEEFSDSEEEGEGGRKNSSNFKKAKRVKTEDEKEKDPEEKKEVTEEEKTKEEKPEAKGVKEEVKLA
Chain of Histone deacetylase 2 (Q92769 whole entry): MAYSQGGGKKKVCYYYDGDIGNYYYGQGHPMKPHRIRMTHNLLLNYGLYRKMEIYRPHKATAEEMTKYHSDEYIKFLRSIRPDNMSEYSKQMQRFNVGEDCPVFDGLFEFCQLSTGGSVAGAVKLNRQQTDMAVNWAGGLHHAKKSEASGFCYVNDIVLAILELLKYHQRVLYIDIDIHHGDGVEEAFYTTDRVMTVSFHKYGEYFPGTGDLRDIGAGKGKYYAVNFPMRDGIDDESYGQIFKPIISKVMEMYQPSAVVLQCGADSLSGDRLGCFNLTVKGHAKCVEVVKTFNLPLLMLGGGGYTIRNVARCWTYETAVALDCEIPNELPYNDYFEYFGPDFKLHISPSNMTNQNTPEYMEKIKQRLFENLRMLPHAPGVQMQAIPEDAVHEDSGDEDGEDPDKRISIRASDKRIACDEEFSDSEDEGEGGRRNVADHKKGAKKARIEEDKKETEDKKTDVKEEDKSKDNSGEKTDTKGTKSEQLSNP
Chain of Histone deacetylase 3 (O15379 whole entry, the tested form may be a part): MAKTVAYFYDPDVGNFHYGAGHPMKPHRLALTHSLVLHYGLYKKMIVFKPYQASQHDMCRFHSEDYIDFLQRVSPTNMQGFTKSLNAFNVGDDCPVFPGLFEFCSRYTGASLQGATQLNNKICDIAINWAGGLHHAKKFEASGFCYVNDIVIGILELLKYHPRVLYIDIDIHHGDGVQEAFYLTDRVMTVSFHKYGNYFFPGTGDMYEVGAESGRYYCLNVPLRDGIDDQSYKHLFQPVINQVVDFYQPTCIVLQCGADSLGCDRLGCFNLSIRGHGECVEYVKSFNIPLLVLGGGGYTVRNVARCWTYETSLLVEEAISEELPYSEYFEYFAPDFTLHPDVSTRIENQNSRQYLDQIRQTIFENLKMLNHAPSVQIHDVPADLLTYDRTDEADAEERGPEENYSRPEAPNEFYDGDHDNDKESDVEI
Description for A549: Antiproliferative activity against human A549 cells assessed as inhibition of cell growth by MTT assay
Description for FaDu: Antiproliferative activity against human FaDu cells assessed as inhibition of cell growth by MTT assay
Description for HH: Antiproliferative activity against human HH cells assessed as inhibition of cell growth by MTT assay
Description for HL-60: Antiproliferative activity against human HL-60 cells assessed as inhibition of cell growth by MTT assay
Description for K562: Antiproliferative activity against human K562 cells assessed as inhibition of cell growth by MTT assay
Description for MOLT-4: Antiproliferative activity against human MOLT-4 cells assessed as inhibition of cell growth by MTT assay
Description for PC-3: Antiproliferative activity against human PC-3 cells assessed as inhibition of cell growth by MTT assay
Description for SiHa: Antiproliferative activity against human SiHa cells assessed as inhibition of cell growth by MTT assay

On to `NC(=O)c1cccc2[nH]c(-c3ccc(NC(=O)CCCCCCCCC(=O)NO)cc3)nc12`, for which the IC50 is above 10 µM in the assay on A549, above 10 µM in the assay on HL-60 and 8.91 µM with PC-3.
On to `NC(=O)c1cccc2[nH]c(-c3ccc(NCc4ccc(C(=O)NO)cc4)cc3)nc12`, for which the IC50 in the assay on A549 was 2.31 µM; in the assay with HL-60, 1.23 µM; in the assay on PC-3, 2.34 µM.
Taken in the same sequence, the figures for `NC(=O)c1cccc2[nH]c(-c3ccc(NC(=O)CCCCCCCC(=O)Nc4ccccc4N)cc3)nc12` were above 10 µM, 4.92 µM and above 10 µM.
Taken in the same sequence, the figures for `NC(=O)c1cccc2[nH]c(-c3ccc(NC(=O)CCCCC(=O)Nc4ccccc4N)cc3)nc12` were above 10 µM, 2.93 µM and 4.76 µM.
In the case of `NC(=O)c1cccc2[nH]c(-c3ccc(NC(=O)CCCC(=O)NO)cc3)nc12`, the IC50 in the assay with A549, with HL-60 and in the assay on PC-3 was above 10 µM each time.
For `NC(=O)c1cccc2[nH]c(-c3ccc(NC(=O)CCCCCCCC(=O)NO)cc3)nc12`, the IC50 in the assay on A549 is above 10 µM; in the assay on HL-60, above 10 µM; in the assay on PC-3, 7.65 µM.
In the case of `NC(=O)c1cccc2[nH]c(-c3ccc(NC(=O)CCCCCCC(=O)Nc4ccccc4N)cc3)nc12`, the IC50 was 2.99 µM in the assay with A549, 1.04 µM in the assay on HL-60 and 3.45 µM with PC-3.
Consider `NC(=O)c1cccc2[nH]c(-c3ccc(NC(=O)CCCCCCC(=O)NO)cc3)nc12`, for which the results for the IC50 with A549, in the assay on HL-60 and in the assay with PC-3 were 2.11 µM, 3.21 µM and 1.87 µM, respectively.
Take `C[C@]1(c2nc3c(C(N)=O)cccc3[nH]2)CCCN1` [VELIPARIB]: the IC50 in the assay with K562, with MOLT-4, in the assay with HH, with MDA-MB-231, in the assay with A549 and with SiHa was above 10 µM throughout. Besides, the IC50 in the assay on FaDu, in the assay with HL-60 and with PC-3 was above 10 µM throughout.
With `NC(=O)c1cccc2[nH]c(-c3ccc(NC(=O)CCCCC(=O)NO)cc3)nc12`, the IC50 in the assay on A549 was 6.98 µM; with HL-60, 5.45 µM; with PC-3, 2.44 µM.
Taken in the same sequence, the figures for `NC(=O)c1cccc2[nH]c(-c3ccc(NC(=O)CCCCCCCCC(=O)Nc4ccccc4N)cc3)nc12` were above 10 µM, 7.96 µM and above 10 µM.
For `NC(=O)c1cccc2[nH]c(-c3ccc(NC(=O)CCCC(=O)Nc4ccccc4N)cc3)nc12`, the IC50 with A549 was above 10 µM; in the assay on HL-60, 3.21 µM; with PC-3, above 10 µM.
As to `NC(=O)c1cccc2[nH]c(-c3ccc(NC(=O)CCC(=O)NO)cc3)nc12`, the values for the IC50 in the assay with A549, in the assay on HL-60 and in the assay with PC-3 were above 10 µM, 7.89 µM and above 10 µM, respectively.
`NC(=O)c1cccc2[nH]c(-c3ccc(NCc4ccc(/C=C/C(=O)NO)cc4)cc3)nc12`: the results for the IC50 with A549, in the assay on HL-60 and in the assay with PC-3 were 2.03 µM, 5.99 µM and 1.99 µM, respectively.
Taken in the same sequence, the figures for `NC(=O)c1cccc2[nH]c(-c3ccc(NCc4ccc(/C=C/C(=O)Nc5ccccc5N)cc4)cc3)nc12` were above 10 µM, 3.65 µM and above 10 µM.
Consider `NC(=O)c1cccc2[nH]c(-c3ccc(NC(=O)CCC(=O)Nc4ccccc4N)cc3)nc12`, for which the IC50 with A549 is above 10 µM; in the assay with HL-60, 3.75 µM; in the assay on PC-3, above 10 µM.
With `NC(=O)c1cccc2[nH]c(-c3ccc(NC(=O)CCCCCC(=O)Nc4ccccc4N)cc3)nc12`, the IC50 in the assay with A549 was 4.32 µM; with HL-60, 2.43 µM; in the assay on PC-3, above 10 µM.
With `Nc1ccccc1NC(=O)c1ccc(CNC(=O)OCc2ccccc2)cc1`, the IC50 in the assay on K562 stood at 4.21 µM; at Histone deacetylase 1, 0.544 µM; at Histone deacetylase 3, 0.624 µM; in the assay on MOLT-4 it was 5.67 µM; in the assay on HH, 4.98 µM; in the assay with A549, 3.45 µM. Moreover, the figures for the IC50 at Histone deacetylase 2, with HL-60 and in the assay on PC-3 were 0.613 µM, 2.98 µM and 5.21 µM, respectively.
Consider `NC(=O)c1cccc2[nH]c(-c3ccc(NC(=O)CCCCCC(=O)NO)cc3)nc12`, for which the IC50 worked out at 5.41 µM in the assay on A549, 8.76 µM in the assay with HL-60 and 2.32 µM in the assay on PC-3.

Values taken from ChEMBL document CHEMBL5550160, “Leveraging a rationally designed veliparib-based anilide eliciting anti-leukemic effects for the design of pH-responsive polymer nanoformulation” (Eur J Med Chem, 2024).
